Like-named read-outs stand apart in the source and are kept apart here. Where a SMILES comes first, the peptide text is derived from it. The star is where a group is joined. Doxorubicin(3'-N) = COc1cccc2c1C(=O)c1c(O)c3c(c(O)c1C2=O)C[C@@](O)(C(=O)CO)C[C@@H]3O[C@H]1C[C@H](N*)[C@H](O)[C@H](C)O1; Hexanoyl(6-maleimido) = O=C1C=CC(=O)N1CCCCCC(=O)*
Legend:
[1] = tested on: Human renal carcinoma OS-RC-2 tumor tissue homogenate; experiment: Activation in OS-RC-2 tumor tissue homogenate; format: biochemical; details: OS-RC-2 homogenate pH 6.0, 37° C., 1 mg/ml
Procedure: (§1) In the experiments of the present disclosure, 1 mg/ml of the sample compound was added to 100 μg of acidified tumor tissue homogenate (pH 6.0) at 37° C. The enzyme in the tumor tissue homogenate can cause the release of doxorubicin, and the reduction of compound and the increase of doxorubicin could be detected by HPLC to compare the activation efficiency of the drug in the tumor tissue.

M2 macrophages = experiment: Cytotoxicity screening, inhibition rate of M2 macrophages at 10 uM; format: cell-based, C57BL/6 mice; details: 10 uM drug per well, 3 wells, relative to the drug-free group
Procedure: After the cell count in Example 13, the cell concentration was adjusted with the culture medium, and the cells were seeded in a 96-well culture plate at […] of cell suspension per well, wherein the seeding concentration of CD8+ T cells was 100000 cells/well, and the seeding concentration of M2 macrophages was 20000 cells/well. The 96-well plate was incubated overnight for 24 hour at 37° C. in a carbon dioxide (5%) incubator. After 24 hours, 100 ul of cell culture solutions containing different concentrations of drugs were added to the 96-well culture plate. At the same time, a control well (0.1% DMSO) with no drug added and only the corresponding drug solvent and a zero-adjusted well (Blank) with only medium and no cells added was set. Each set was prepared in triplicate and the plates were incubated for 48 hours at 37° C. in a 5% CO2 incubator. After 48 hours, 20 μl MTT (5 mg/ml) was added to each well and the incubation was continued for 4 hours. The culture medium was then gently aspirated, and 150 μl DMSO was added to each well as solvent for dissolution. After dissolution, the absorbance at 490 nm was measured with a microplate reader.
Cytotoxicity screening experiments for some compounds were performed for M2 macrophage inhibition as in embodiment 14.

[2] = tested on: Human ovarian carcinoma SK-OV-3 tumor tissue homogenate; experiment: Activation in SK-OV-3 tumor tissue homogenate; format: biochemical; details: SK-OV-3 homogenate pH 6.0, 37° C., 1 mg/ml
Procedure: as §1

HSA = HSA (Homo sapiens, UniProt P02768); experiment: Binding of compounds with HSA (albumin coupling); details: compound with HSA 3:1, 37° C. for 3 h
Procedure: HSA was dissolved in sterile water. The compound was combined with HSA at a ratio of 3:1 (4.8 umol/mL, 1.6 umol/mL), and reacted in a water bath at 37° C. for 3 h. The reaction solution was taken out, and the unbound compound was filtered by pressurized ultrafiltration membrane, diluted with normal saline and filtered for 3 times to obtain the semi-finished product.

HT1080 tumors = experiment: HT1080 tumor model in nude mice, 36 umol/kg; format: in vivo; details: for inhibition in vivo at 36 µmol/kg: Mus musculus, read-out: Tumor inhibition rate Day 28
Procedure: • 1. Animals: nude mice aged 6-8 weeks, all female. • 2. Preparation of tumor models • 1) HT1080 cells were purchased from ATCC and characterized according to the instructions provided. […] Randomization was performed when the tumor size reached 100 mm^3. Treatment was then initiated, and the day of initiation of treatment was counted as Day 1. • 3) Treatment process
According to the clinical application of the corresponding compound, the drug was administered intravenously (IV). The compounds indicated in the table were administered at a low dose and at the same dose of 36 umol/kg.

[3] = Water solubility test (observation and HPLC); format: physicochemical; details: thermodynamic from solid
Procedure: The compounds prepared in accordance with the examples of the disclosure and the reference compounds C1, C2, C3 and C4 were lyophilized (−70° C.).

[4] = format: physicochemical
From the text: The freeze-dried products EMC-AANL-DOX, HSA-EMC-AANL-DOX, HSA-QHL-087-DOX and HSA-QHL-087-N-CBP prepared by the embodiment of the disclosure are subpackaged in a sterile room and redissolved by water for injection.

[5] = tested on: Human hepatoma HepG2 cells; experiment: Human liver cancer HepG2 tumors in nude mice; format: in vivo; details: for inhibition in vivo at 54 µmol/kg: Mus musculus, read-out: Tumor inhibition rate (%) Day 28
Procedure: • 1. Animals: nude mice aged 6-8 weeks, all female. • 2. Preparation of tumor models
Human hepatoma HepG2 cells were purchased from ATCC and identified according to the instructions provided. […] Randomization was performed when the tumor size reached 100 mm^3.
Treatment was then initiated, and the day of initiation of treatment was counted as Day 1. • 3) Treatment process
According to the clinical application of the corresponding compound, the drug was administered intravenously (IV). The compound and the control drug were administered at a dose of 54 umol/kg, and DOX could only be administered at a dose of 18 umol/kg due to toxicity limitations.

[6] = 0.5 mg/ml, pH 5.5
Procedure: Add 0.5 ml of sterile water for injection to prepare a 10 mg/ml mother solution. […] Take 30 ul of the mother solution, add 570 ul of buffer solutions with different pH values of 5.5, and prepare a 0.5 mg/ml sample solution. After the sample was clarified, it was placed in a 25° C./37° C. water bath, and after 8 hours, the sample was sampled by HPLC and electrophoresis to detect the content of the sample relative to 0 hours, and the solution stability data of different compounds could be obtained.

[7] = tested on: acidified human breast cancer (MDA-MB435) tumor tissue homogenate; experiment: Activation efficiency of S-C-A linkers in tumor tissue homogenate, HPLC; format: biochemical; details: Table 2-1; C is AAN; 1 mg/ml, homogenate pH 6.0, 37° C.
Procedure: When C is AAN, the activation of the different S-C-A linkers and the control linker is evaluated in an activation assay. They were dissolved and diluted tenfold using S-C-A conjugates to a concentration of 0.1 mM/ml. The sample compounds were added at a concentration of 1 mg/ml to 100 μg of acidified human breast cancer (MDA—MB435) tumor tissue homogenate (pH 6.0) at 37° C. The enzyme in the tumor tissue homogenate was released and detected by HPLC to compare the efficiency of activation of the linker by the tumor tissue.
The effect of the D-type tripeptide on the activation efficiency was examined in comparison to the native peptide sequence linker cleaved by Legumain, S1 in MI-S is —CH2CH2—CONH—, S2: 2 peg.

BALB/C mice = experiment: Acute toxicity (MTD) of intravenous administration in mice; format: in vivo; details: 38.4 μmol/kg intravenous, 10 mice, observed 17 days
Procedure: They were randomly divided into 7 groups according to body weight, 10 mice in each group. […] The control test of saline group and paclitaxel group injection (commercially available, Beijing Youcare pharmaceutical) was carried out, the volume of administration was 0.2 ml for each mouse.

[8] = tested on: Human pancreatic carcinoma Panc-1 tumor tissue homogenate; experiment: Activation in Panc-1 tumor tissue homogenate; format: biochemical; details: Panc-1 homogenate pH 6.0, 37° C., 1 mg/ml
Procedure: as §1

Human heart = experiment: Activation in human heart homogenate; format: biochemical; details: pH 6.0, 37° C., 1 mg/ml
[9] = Tissue distribution of released doxorubicin in orthotopic liver CT26 tumor mice; format: in vivo, BALB/c mice
Procedure: • Objective: To investigate the tissue distribution of activating drugs in liver tumors. • Test animals: BALB/c mice, 6-8 weeks old, all female.
• 1) CT26 cells were purchased from ATCC. […] Randomization was performed when the tumor size reached 800-1000 mm^3. Tumor tissue was then extracted and cut into 100 mm^3 tumor tissue pieces and transplanted orthotopically into BALB/c mouse livers. • 3) Administration process: After 14 days, when the orthotopically transplanted tumor grew, a group of 36 orthotopically transplanted tumor mice were treated with drugs. […] The previously published use of EMC-AANL-DOX was for breast cancer treatment.

Chain of HSA (P02768 25-609): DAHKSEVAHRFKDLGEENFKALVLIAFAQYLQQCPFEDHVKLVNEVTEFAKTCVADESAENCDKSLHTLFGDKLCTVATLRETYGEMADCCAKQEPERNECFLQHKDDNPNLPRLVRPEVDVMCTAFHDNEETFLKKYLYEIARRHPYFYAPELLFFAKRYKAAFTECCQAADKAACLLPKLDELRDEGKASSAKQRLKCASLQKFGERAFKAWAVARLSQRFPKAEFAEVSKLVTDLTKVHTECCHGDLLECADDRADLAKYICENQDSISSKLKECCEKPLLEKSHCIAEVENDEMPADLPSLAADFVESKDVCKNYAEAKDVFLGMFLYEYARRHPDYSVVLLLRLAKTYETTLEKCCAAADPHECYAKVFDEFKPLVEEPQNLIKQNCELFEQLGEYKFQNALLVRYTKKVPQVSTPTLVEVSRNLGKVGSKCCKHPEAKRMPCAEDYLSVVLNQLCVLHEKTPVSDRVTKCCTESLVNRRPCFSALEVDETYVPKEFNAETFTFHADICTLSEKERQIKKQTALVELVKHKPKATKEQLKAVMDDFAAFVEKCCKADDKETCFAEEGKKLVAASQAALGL

Structure (SMILES)	Compound activation ratios (%) [1]	Inhibition rate of M2 macrophages (M2 macrophages)	Compound activation ratios (%) [2]	binding rates of HSA (HSA)	Tumor volume (mm^3) Day 28 (HT1080 tumors; 36 umol/kg IV once a week for 3 weeks)	inhibition in vivo at 36 µmol/kg (HT1080 tumors; HT-1080, 672 h, 36 umol/kg IV once a week for 3 weeks)	solubility [3]	Solubility in water for injection [4]	Tumor volume (mm^3) Day 28 ([5]; 54 umol/kg IV once a week for 4 weeks)	inhibition in vivo at 54 µmol/kg ([5]; HepG2, 672 h, 54 umol/kg IV once a week for 4 weeks)	therapeutic effect on liver cancer, in words ([5]; same molar dose)	Stability data of the solution, 8 hr (content relative to 0 hours) [6]	Activation efficiency (%) [7]	Number of dead mice (BALB/C mice)	Compound activation ratios (%) [8]	Compound activation ratios (%) (Human heart)	doxorubicin delivery and activation compared with EMC-AANL-DOX ([9]; liver and in situ liver tumor)	distribution of active doxorubicin (FIGS. 8 and 9) ([9]; tissues collected at 1-72 hr, AUClast)	inhibition in vivo at 36 µmol/kg (HT1080 tumors; HT-1080, iv, 672 h)	inhibition in vivo at 54 µmol/kg ([5]; HepG2, iv, 672 h)
COc1cccc2c1C(=O)c1c(O)c3c(c(O)c1C2=O)C[C@@](O)(C(=O)CO)C[C@@H]3O[C@H]1C[C@H](NC(=O)[C@H](CC(C)C)NC(=O)[C@H](CC(N)=O)NC(=O)[C@H](C)NC(=O)[C@H](C)NC(=O)CCCCCN2C(=O)C=CC2=O)[C@H](O)[C@H](C)O1 [EMC-AANL-DOX] ({Hexanoyl(6-maleimido)}-AANL-{Doxorubicin(3'-N)})	46.4%	34.6%	58.4%	62%	138.3 ± 124.6 mm^3	92.1%	< 5000 µg/mL	Insolubility	218.3 ± 167.7 mm^3	92.5%	good effect on the treatment of liver cancer	94.3%	56.4%	8	54.8%	0.2%				
COc1cccc2c1C(=O)c1c(O)c3c(c(O)c1C2=O)C[C@@](O)(C(=O)CO)C[C@@H]3O[C@H]1C[C@H](NC(=O)[C@H](CC(C)C)NC(=O)[C@H](CC(N)=O)NC(=O)[C@H](C)NC(=O)[C@H](C)NC(=O)CCOCCOCCNC(=O)CCN2C(=O)C=CC2=O)[C@H](O)[C@H](C)O1 [QHL-087-DOX]														4			enhanced doxorubicin delivery and activation in situ liver cancer	mainly distributed in the liver and liver orthotopic tumors	100%	100%

From patent publication US20230414771A1, “PREPARATION AND USE OF IMMUNOSTIMULATORY CONJUGATED COMPLEXES FOR TARGETED DELIVERY AND ACTIVATION” (YAFEI SHANGHAI BIOLOGY MEDICINE SCIENCE & TECHNOLOGY CO., …, priority 2020, published 2023)
